From the Deep4Chem optical property database

Test: solvent given as SMILES

c1ccc(N(c2ccccc2)c2ccc(-c3ncnc4ccccc34)cc2)cc1
emission maximum (in C1CCCCC1): 445 nm | emission maximum (in C1CCOC1): 508 nm | emission maximum (in CC#N): 559 nm | emission maximum (in CS(C)=O): 563 nm | emission maximum (in ClCCl): 528 nm

Fc1c(-n2c3ccccc3c3ccccc32)c(-c2nnc(-c3ccccc3)o2)c(-n2c3ccccc3c3ccccc32)c(-n2c3ccccc3c3ccccc32)c1-n1c2ccccc2c2ccccc21
emission maximum (in Cc1ccccc1): 483 nm

O=S(=O)(c1ccccc1)c1ccc(-c2ccc3c4ccc(-c5ccc(S(=O)(=O)c6ccccc6)cc5)cc4n(-c4ccccc4)c3c2)cc1
emission maximum (in CCCCCC): 409 nm | emission maximum (in CN(C)C=O): 437 nm | emission maximum (in CO): 434 nm | emission maximum (in Cc1ccccc1): 413 nm | emission maximum (in ClCCl): 411 nm

N#Cc1c(N2CCCC2)cc(-c2ccccc2)c2c1-c1cccc3cccc-2c13
emission maximum (in O): 550 nm

COC(=O)c1nc2c(N(C)C)nc(N(C)C)nc2n1Cc1ccccc1
emission maximum (in C1COCCO1): 402 nm | emission maximum (in CC#N): 415 nm | emission maximum (in CO): 432 nm | emission maximum (in ClCCl): 409 nm

c1ccc2c(c1)c1ccccc1n2-c1ccc(-c2nnc(-c3ccc(-n4c5ccccc5c5ccccc54)cc3)o2)cc1
emission maximum (in Cc1ccccc1): 386 nm | emission maximum (in O=P(c1ccccc1)(c1ccccc1)c1ccccc1Oc1ccccc1P(=O)(c1ccccc1)c1ccccc1): 414 nm

CCCN1/C(=C/C=C(/C=C/C2=[N+](CCC)c3ccccc3C2(C)C)c2ccc3ccccc3n2)C(C)(C)c2ccccc21
emission maximum (in CO): 652 nm | emission maximum (in CS(C)=O): 664 nm | emission maximum (in O): 653 nm

COc1ccc(/C=C/C2=CC(/C=C/c3ccc(OC)c4ccccc34)=[O+][B-](F)(F)O2)c2ccccc12
emission maximum (in CC#N): 651 nm | emission maximum (in CC(C)=O): 622 nm | emission maximum (in CCOC(C)=O): 590 nm | emission maximum (in CCOCC): 587 nm | emission maximum (in ClC(Cl)(Cl)Cl): 561 nm | emission maximum (in ClCCl): 616 nm

CC1CCC(=CS/C=C/c2ccc(-c3ccc(/C=C/SC=C4CCC(C)CC4)cc3)cc2)CC1 (configuration not stated)
emission maximum (in ClCCl): 432 nm

Cc1csc(C)c1C1=C(c2c(C)sc(-c3ccc(-c4nc(-c5ccccc5)c(-c5ccccc5)[nH]4)cc3)c2C)C(F)(F)C(F)(F)C1(F)F
emission maximum (in C1CCOC1): 410 nm

CCOC(=O)COc1ccccc1C(c1c(C)[nH]c2ccccc12)c1c(C)[nH]c2ccccc12
emission maximum (in C1CCCCC1): 328 nm | emission maximum (in CC#N): 348 nm | emission maximum (in CO): 349 nm | emission maximum (in O): 350 nm

F[Si-](F)(c1c2ccccc2cc2ccccc12)(c1c2ccccc2cc2ccccc12)c1c2ccccc2cc2ccccc12
emission maximum (in C1CCOC1): 396 nm

c1ccc([B-]23NC(C4CCCCC4)=Nc4cccc([n+]42)N=C(C2CCCCC2)N3)cc1
emission maximum (in ClCCl): 456 nm

COC(=O)C[C@H](Cc1c[nH]c2ccccc12)NC(=O)[C@H](CC(=O)N[C@@H](CC1=CCc2ccccc21)C(=O)OC)NC(=O)OC(C)(C)C
emission maximum (in CC#N): 332 nm | emission maximum (in CCOC(C)=O): 326 nm | emission maximum (in CO): 337 nm

COc1ccc2c3c([nH]c2c1)C(C)=NCC3
emission maximum (in CC#N): 480 nm | emission maximum (in CS(C)=O): 420 nm | emission maximum (in O): 480 nm

N#Cc1c(N2CCCCC2)cc(-c2ccc3ccccc3c2)c2c1-c1ccccc1C2
emission maximum (in C1CCOC1): 462 nm

COc1cc(C2=c3c(c4ccc(C(C)(C)C)cc4c4cc(C(C)(C)C)ccc34)=[N+]3C2=Nc2c(-c4cc(OC)c(OC)c(OC)c4)c4c5ccc(C(C)(C)C)cc5c5cc(C(C)(C)C)ccc5c4n2[B-]3(F)F)cc(OC)c1OC
emission maximum (in Cc1ccccc1): 816 nm

CCC1(CC)c2cc(-c3ccc(-c4ccc5c(c4)C(CC)(CC)c4cc(C(C)(C)C)ccc4-5)cc3)ccc2-c2ccc(C(C)(C)C)cc21
emission maximum (in CO): 383.9 nm

CCOC(=O)/N=c1/oc2cc(OC)ccc2cc1C#N
emission maximum (in ClCCl): 434 nm

N#Cc1ccc(-c2pc3ccccc3s2)cc1 (configuration not stated)
emission maximum (in CC#N): 433 nm

c1ccc(-c2nc(-c3ccccc3)nc(-c3cc(-n4c5ccccc5c5ccccc54)c(-n4c5ccccc5c5ncccc54)c(-n4c5ccccc5c5ccccc54)c3)n2)cc1
emission maximum (in C1CCOC1): 481.97 nm | emission maximum (in CC#N): 535.03 nm | emission maximum (in CCCCCC): 422.11 nm | emission maximum (in Cc1ccccc1): 447.02 nm | emission maximum (in ClCCl): 507.14 nm

CCCCCCN1C(=O)c2cccc3c(-c4cccs4)ccc(c23)C1=O
emission maximum (in ClC(Cl)Cl): 465 nm

CCCCCCc1ccc(-n2c3[n+](c4c5ccccc5c5ccccc5c42)[B-](C)(C)c2ccc4ccccc4c2-3)cc1
emission maximum (in C1CCOC1): 444 nm | emission maximum (in CC#N): 443 nm | emission maximum (in Cc1ccccc1): 444 nm | emission maximum (in ClCCl): 435 nm

c1cc2ccc1-c1ccc(cc1)-c1ccc(s1)-c1ccc(cc1)-c1ccc(cc1)-c1ccc(s1)-c1ccc(cc1)-c1ccc(cc1)-c1ccc(s1)-c1ccc(cc1)-c1ccc(cc1)-c1ccc-2s1
emission maximum (in C1CCOC1): 472 nm

C[Si](C)(C)c1ccc(-c2ccc(-c3ccc(-c4ccc(-c5ccc([Si](C)(C)C)s5)s4)c4nsnc34)s2)s1
emission maximum (in C1CCOC1): 656 nm

COc1nc(Nc2ccc3c4cccc5cccc(c6cccc2c63)c54)nc(OC)n1
emission maximum (in C1COCCO1): 478 nm | emission maximum (in CC#N): 479 nm | emission maximum (in CCCCOCCCC): 477 nm | emission maximum (in CCOC(C)=O): 477 nm
